This passage reports IC50 results from ChEMBL document CHEMBL5725372, “Inhibitors of sodium glucose cotransporter 1” (2017).

In this experiment the target is T1, Sodium/glucose cotransporter 2 (Homo sapiens, UniProt P31639).
T1 sequence (P31639 whole entry): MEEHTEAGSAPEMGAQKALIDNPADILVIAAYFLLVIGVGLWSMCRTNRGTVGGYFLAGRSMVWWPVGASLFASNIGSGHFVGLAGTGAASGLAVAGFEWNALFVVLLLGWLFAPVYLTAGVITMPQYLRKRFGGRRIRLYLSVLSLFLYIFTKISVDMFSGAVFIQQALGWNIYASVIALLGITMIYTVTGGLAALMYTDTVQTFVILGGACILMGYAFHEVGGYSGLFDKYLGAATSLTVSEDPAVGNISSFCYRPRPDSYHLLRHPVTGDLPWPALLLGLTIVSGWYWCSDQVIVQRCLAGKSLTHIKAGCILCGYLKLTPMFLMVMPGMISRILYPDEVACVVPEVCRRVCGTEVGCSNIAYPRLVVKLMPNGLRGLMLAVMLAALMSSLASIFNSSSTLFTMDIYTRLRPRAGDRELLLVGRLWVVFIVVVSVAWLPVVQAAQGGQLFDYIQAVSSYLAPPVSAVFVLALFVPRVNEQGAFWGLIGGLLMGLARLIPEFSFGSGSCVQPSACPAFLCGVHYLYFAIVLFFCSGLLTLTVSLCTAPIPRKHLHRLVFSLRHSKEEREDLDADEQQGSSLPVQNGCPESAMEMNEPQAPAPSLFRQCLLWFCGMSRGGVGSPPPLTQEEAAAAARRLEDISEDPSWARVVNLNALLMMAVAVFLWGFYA
Put plainly: In Vitro Human SGLT2 Inhibition Assay: Human sodium/glucose co-transporter type 2 (SGLT2; accession number P31639; GI:400337) was cloned into pIRESpuro2 vector for mammalian expression (construct: HA-SGLT2-pIRESpuro2). HEK293 cells were transfected with the human HA-SGLT2-pIRESpuro2 vector and the bulk stable cell line was selected in presence of 0.5 μg/mL of puromycin. Human HA-SGLT2 cells were maintained in DMEM media containing 10% FBS, 1% GPS and 0.5 μg/mL of puromycin. The HEK293 cells expressing the human HA-SGLT2 were seeded in 384 well plates (30,000 cells/well) in DMEM media containing 10% FBS, 1% GPS and 0.5 μg/mL of puromycin, then incubated overnight at 37 C, 5% CO2. Cells were then washed with uptake buffer (140 mM NaCl, 2 mM KCl, 1 mM CaCl2, 1 mM MgCl2, 10 mM HEPES, 5 mM Tris, 1 mg/mL bovine serum albumin (BSA), pH 7.3). Twenty microliters of uptake buffer with or without testing compounds were added to the cells. Then, 20 microliters of uptake buffer containing 14C-AMG (100 nCi) were added to the cells. The cell plates were incubated at 37° C., 5% CO2 for 1-2 hours. After washing the cells with uptake buffer, scintillation fluid was added (40 microliters/well) and 14C-AMG uptake was measured by counting radioactivity using a scintillation coulter ([…]; Packard Instruments).

For `CS[C@H]1O[C@@H](c2ccc(C)c(Cc3ccc(OCCNC(=O)NC(C)(C)CO)cc3)c2)[C@H](O)[C@@H](O)[C@@H]1O`, the IC50 is less than 10 nM.

By IC50 is commonly meant the concentration at which inhibition is half-maximal.
